Laboratory results taken from US5155215A, “Polychelating agents for image and spectral enhancement (and spectral shift)” (priority 1990, dated 1992).
pIC50: −log10 of the molar value.

What was measured:
[1] = Liver T1 decrease / liver image enhancement, effective dose; format: in vivo, mice and rats; conditions: 30 min
[2] = system: human brain tumors; renal tumors; conditions: cited from earlier work
[3] = In vivo NMR enhancement of normal rat tissues, image T1 and enhancement (0.35 Tesla Diasonics); parameters: species or system Sprague-Dawley rats
From the text: Sprague-Dawley rats were imaged using a 0.35-Tesla, Diasonics clinical MR imaging system and a 30-cm rf coil. Three clinically relevant pulse sequences were used: 1) spin-echo with a TR of 0.5 seconds (for T1-weighted images), 2) inversion-recovery (IR) (for T1-weighted images), and 3) spin-echo with a TR of 2.0 seconds (for T2-weighted images). Diasonics software was used to calculate the area-averaged tissue intensities before and after injection of contrast agents. Dual pulse sequences (spin-echo, with TR's of 0.5 and 1.5 seconds or 1.0 and 2.0 seconds) were also used to calculate the in vivo T1 relaxation times. At the conclusion of imaging, the liver, spleen and kidneys were excised and their T1 (IR) and T2 (Carr-Purcell-Meiboom-Gill) relaxation times were determined at 37° C., using an IBM pC20 Minispectroneter. For these in vitro experiments, uninjected rats were used in place of preinjection controls.

[4] = Enhanced T1-weighted blood flow images in cardiac chambers; format: in vivo, rats; conditions: i.v., rat heart chambers
Experimental: Gd:DTPA-dextran microspheres (at 0.03 mmoles Gd/kg) were injected i.v. at time zero into Sprayer-Dawley rats and images were obtained immediately and serially each 5 minutes×4 (spin-echo, multi-echo, TR=0.5 & 1.5).

[5] = MR imaging and proton T1 relaxation times in rats (DEAE-dextran agents); format: in vivo, Sprague-Dawley rats; conditions: Gd 0.30 (polymer, dimeglumine) or 0.15 (microspheres) mmol/kg
Experimental: Test materials were injected intravenously into 500 gm Sprague-Dawley rats. at approximately 30 minutes, the rats were placed in the head coil of a 0.35 Tesla clinical imaging device (Diasonics Corp.), and T1-weighted images (using both a spin-echo pulse sequence at TR's of 0.5, 1.5 and 2.0, and an inversion recovery sequence) were obtained on image slices of 0.5 cm thickness taken through the liver and kidneys. T1 relaxation times were determined from the TR=0.5 and 2.0 data using area-averaging of signal intensities and a proprietary software program for calculations. At the completion of imaging, the rats were sacrificed by decapitation (exsanguination). Their livers, kidneys and spleens were excised, tested for in vitro correlations with the in vivo changes in proton T1 relaxation times and then placed in buffered formalin fixative for histopathologic evaluation.

[6] = cited from earlier work
[7] = T1 of freshly excised rat spleens after injection; format: in vivo, Sprague-Dawley rats
From the text: Post-contrast images were obtained serially beginning immediately after the i.v. injection of contrast agents and continuing for several hours thereafter.

[8] = cited from earlier work; remark: listed apart in the source
[9] = Whole-organ liver T1 after albumin microspheres; format: in vivo, CBA mice; conditions: 0.1 mmol/kg Gd, 30 min
Experimental: Microspheres (Gd:DTPA:dimeglumine:albumin) were tested in vivo by injecting them intravenously into 25 gm CBA mice (2 animals per group), allowing 30 minutes for uptake and sequestration by liver Kupffer cells, sacrificing the mice, and testing the excised organs. […] Radioisotope was quantified in a standard gamma counter.
The T1-weighted proton relaxation times of mouse livers were quantified by determining the whole-organ T1 relaxation time in a 20 MHz NMR spectrometer.

[10] = In vitro T1 relaxation of water protons (IBM PC 20 Minispectrometer, 20 MHz); format: physicochemical
Experimental: Microspheres were suspended at a concentration of 1 mg/ml by brief sonification. Because albumin microspheres have a fast-release (surface) component of Gd:DTPA as well as a controlled-release (interior) component, the spheres were washed, resuspended, and diluted serially for testing.
Thus, it was not necessary to wash and resuspend the materials prior to NMR testing.

[11] = Proton T1 relaxation times in mouse organs (DEAE-dextran agents); format: in vivo, CBA mice
Experimental: Test materials were injected i.v. into 25 gm CBA mice. At 30 min the mice were sacrificed by decapitation (exsanguination) and the excised livers and kidneys assessed for changes in proton T1 relaxation times (20 MHz; IR pulse sequence). Doses of test materials were made equivalent based on in vitro potency (ID50 analysis).

[12] = system: 7777-strain Morris hepatoma; experiment: In vivo NMR image enhancement of a primary liver tumor (hepatoma); conditions: after injection
Experimental: After two to three weeks the local tumors had reached an average diameter of 0.5 and 1.0 cm. The rats were then imaged both before and after i.v. injections of Gd-DTPA or microsphere Gd-DTPA. MR imaging was performed in a 30cm rf coil with a 0.35 Tesla, Diasonics clinical MRI system (as described above). Post-contrast images were obtained serially beginning immediately after injection and continuing for several hours thereafter.

[13] = precipitation at body pH; cited from earlier work

CNC[C@H](O)[C@@H](O)[C@H](O)[C@H](O)CO.CNC[C@H](O)[C@@H](O)[C@H](O)[C@H](O)CO.O=C([O-])CN(CCN(CC(=O)[O-])CC(=O)O)CCN(CC(=O)[O-])CC(=O)O.[Gd+3] [Gd:DTPA dimeglumine]
Change in liver T1's at the usual 30-minute imaging interval [1]: minimal changes in liver T1's
Enhancement of renal tumors ([2]; human, in vivo): enhanced satisfactorily
Enhancement of human brain tumors ([2]; preliminary clinical results): almost all human brain tumors undergo significant enhancement
% Decrease in T1, kidney (30 min post vs. pre) ([3]; kidney, 30 min, image T1): 55.7%
Time after which all liver enhancement was lost ([3]; liver): 50 min
% Decrease in T1, liver (30 min post vs. pre) ([3]; liver, 30 min, image T1): 24.6%
Bone marrow image enhancement ([3]; visual inspection): not Gd:DTPA dimeglumine
Enhancement of blood flow images [4]: almost completely ineffective
T1 (% of control), kidney, in vitro ([5]; excised kidney, control 492 msec): 25%
T1 (% of control), liver, in vitro ([5]; excised liver, control 275 msec): 88%
T1 (% of control), spleen, in vitro ([5]; excised spleen, control 464 msec): 86%
T1 (% of control), kidney, in vivo ([5]; kidney, imaging): 57%
T1 (% of control), liver, in vivo ([5]; liver, imaging): 83%
Bloodstream clearance (1/2) ([6]; Weinman et al.): 20 min
Quantity cleared by the kidneys ([6]; Weinman et al.): > 90%
Imaging window ([6]; in vivo): ca. 30 minutes
Number of optimal images after each injection ([6]; in vivo): ca. 2
% Decrease in T1 of Spleen (35 min post vs. pre) [7]: 14.4%
Relaxivity at higher proton Larmor frequencies ([8]; typically 15 Mhz): marked decrease in relaxivity
Liver T1, % of Control [9]: 98.5%
Liver T1 ([9]; saline 332): 327 ms
pIC50 ([10]; Gd, read-out: ID50 as molar concentration of Gd): 4.05
ID50 (total weight) ([10]; T1 to 50% of phosphate-buffered saline): 0.084 mg/mL
Material concentration required to produce a 50% decrease in the T1 of water protons ([10]; total material): 90 µg/mL
T1 (% of control), kidney ([11]; kidney, 30 min, 0.23 mmol/kg DEAE agents, 0.47 mmol/kg Gd:DTPA dimeglumine, control 385 msec): 24%
T1 (% of control), liver ([11]; liver, 30 min, 0.23 mmol/kg DEAE agents, 0.47 mmol/kg Gd:DTPA dimeglumine, control 330 msec): 83%
Effectiveness at decreasing the T1 of liver ([11]; mouse liver, very high doses): relatively ineffective
Time by which tumor contrast was significantly reduced [12]: 1.5 h

[Gd] [Gd, gadolinium]
Toxicity of the free form [13]: quite toxic
Paramagnetic dipole ([8]; Gd, seven unpaired 4f electrons): 7.9 Bohr magnetons

O=C(O)CN1CCN(CC(=O)O)CCN(CC(=O)O)CCN(CC(=O)O)CC1 [DOTA, 1,4,7,10-tetraazacyclododecane-N,N',N"-tetraacetic acid]
Relaxivity relative to Gd-DTPA ([8]; wide range of Larmor frequencies): approximately 2 times greater
